The source of these data is EPA's ToxRefDB 2.

Where a name gives a salt, the structure may show the parent alone.

Data set [1] concerns rat. The settings on record: Subchronic oral toxicity in rodents, fischer, Gavage/Intubation, dose end: 13 week, group: systemic, systemic / hematology / anemia / anemia - macrocytic + systemic / hematology / erythrocyte (rbc) count differential / erythrocyte (rbc) + ….
For data set [2], the system named is mouse. The settings on record: Subchronic oral toxicity in rodents, b6c3f1, Gavage/Intubation, dose end: 13 week, group: systemic, systemic / hematology / methemoglobin / methemoglobin + systemic / pathology microscopic / bone marrow / hemosiderosis + systemic / ….
For data set [3], the system named is rat. The settings on record: Prenatal developmental toxicity study; other; Inhalation; Nose-Only; dose end: 16 GD; group: maternal; systemic / in life observation / body weight / body weight gain + systemic / in life observation / food consumption / food consumption.
The test system of data set [4] is mouse. The settings on record: Subchronic oral toxicity in rodents, b6c3f1, Feed, dose end: 13 week, group: systemic, systemic / in life observation / body weight / body weight.
Data set [5] deals with mouse. The conditions noted are these: Combined chronic toxicity/carcinogenicity; b6c3f1; Oral; Feed; dose end: 103 week; group: systemic; systemic / in life observation / body weight / body weight.
Data set [6] relates to mouse. The conditions noted are these: Prenatal developmental toxicity study, cd1, Oral, Gavage/Intubation, dose end: 15 GD.
The test system of data set [7] is rat. The settings on record: Combined chronic toxicity/carcinogenicity, fischer, Oral, Feed, dose end: 103 week, group: systemic.
Data set [8] deals with mouse. The settings on record: Carcinogenicity; b6c3f1; Oral; Feed; dose end: 103 week; group: systemic; systemic / in life observation / body weight / body weight.
In the next data set the test system is dog. The conditions noted are these: Chronic toxicity; beagle; Oral; Feed; dose end: 12 month; group: systemic; systemic / in life observation / body weight / body weight + systemic / in life observation / clinical signs / inappetence + systemic / in ….
Data set [9] deals with rat. The conditions noted are these: Subchronic oral toxicity in rodents, fischer, Feed, dose end: 13 week, group: systemic, systemic / pathology microscopic / liver / vacuolization.
Data set [10] has as its system rat. The settings on record: Carcinogenicity; fischer; Oral; Feed; dose end: 103 week; group: systemic; systemic / pathology microscopic / pituitary gland / adenoma + systemic / pathology microscopic / pituitary gland / adenoma/carcinoma ….
Data set [11] deals with rat. The settings on record: Prenatal developmental toxicity study, other, Oral, Gavage/Intubation, dose end: 15 GD.
Data set [12] relates to mouse. The conditions noted are these: Subchronic oral toxicity in rodents, cd1, Feed, dose end: 13 week, group: systemic, systemic / clinical chemistry / alkaline phosphatase (alp/alk) / alkaline phosphatase (alp/alk) + systemic / pathology microscopic / liver….
Data set [13] has as its system rat. The settings on record: Combined chronic toxicity/carcinogenicity; sprague dawley; Oral; Feed; dose end: 104 week; group: systemic; systemic / pathology microscopic / lung / foam cell aggregation + systemic / hematology / erythrocyte (rbc) count differential / erythrocyte….
The subject of data set [14] is mouse. The conditions noted are these: Subchronic oral toxicity in rodents, Feed, dose end: 28 day, group: systemic.
In a further data set the test system is rabbit. The conditions noted are these: Prenatal developmental toxicity study, new zealand white, Oral, Gavage/Intubation, dose end: 18 GD, group: maternal.
Data set [15] concerns rat. The settings on record: Multigenerational reproductive toxicity study, sprague dawley, Oral, Feed, dose end: 2 generation.
The mark [16] stands for this setting: group: developmental, systemic / in life observation / body weight / fetal weight.
Setting [17] is: group: maternal, systemic / in life observation / body weight / dam weight + systemic / in life observation / clinical signs / abnormal respiratory sounds + ….
[18] abbreviates: systemic / pathology microscopic / liver / fatty change.
[19] abbreviates: systemic / pathology microscopic / pituitary gland / adenoma + systemic / pathology microscopic / adrenal gland / pheochromocytoma nos + ….
Where [20] appears, read: group: maternal, systemic / in life observation / body weight / body weight gain + systemic / in life observation / clinical signs / fur (altered appearance….
The mark [21] stands for this setting: systemic / pathology microscopic / liver / infiltration cellular.
The mark [22] stands for this setting: reproductive / offspring survival early / live fetuses / live fetuses.
Where [23] appears, read: group: maternal, systemic / in life observation / body weight / body weight gain.
Where [24] appears, read: group: offspring, developmental / offspring survival late / viability index / viability index + systemic / in life observation / body weight / offspring (pup….
[25] abbreviates: group: offspring, systemic / in life observation / body weight / offspring (pup) weight.
Where [26] appears, read: group: parental, systemic / in life observation / body weight / body weight + systemic / in life observation / body weight / body weight gain.
[27] abbreviates: group: parental, systemic / in life observation / body weight / body weight gain.

With `Nc1cccc(Cl)c1` [3-Chloroaniline], in the data set on rat [1], the LEL came to 10 mg/kg/day, the LOAEL was found to be 20 mg/kg/day, the NEL was < 10 mg/kg/day and the NOAEL turned out to be 10 mg/kg/day. In addition, in the data set with mouse [2], the LEL was determined as 10 mg/kg/day, the LOAEL stood at 40 mg/kg/day, the NEL was < 10 mg/kg/day and the NOAEL was 20 mg/kg/day.
On to `COS(=O)(=O)OC` [Dimethyl sulfate], for which, in the data set on rat [3], the LEL is 0.7 ppm, the LOAEL was > 1.5 ppm, the NEL was found to be 0.1 ppm and the NOAEL was ≥ 1.5 ppm.
On to `CN(C)[C@@H]1C(=O)C(C(N)=O)=C(O)[C@@]2(O)C(=O)C3=C(O)c4c(O)cccc4[C@@](C)(O)[C@H]3[C@H](O)[C@@H]12.Cl` [Oxytetracycline hydrochloride], for which the LEL in the data set on mouse [4] was determined as 3750 mg/kg/day; with mouse [5], 1400 mg/kg/day; in the data set with mouse [6] (setting [16]), 1320 mg/kg/day; in the data set on mouse [6] (group: maternal, systemic / in life observation / body weight / dam weight), 1670 mg/kg/day; in the data set with rat [7] (setting [18]) it was 1000 mg/kg/day; with mouse [8], 1370 mg/kg/day. Besides, the LEL in the data set on dog was determined as 125 mg/kg/day; with rat [9], 155 mg/kg/day; in the data set on rat [10] it was 1250 mg/kg/day; with rat [11] (setting [16]), 1200 mg/kg/day; in the data set on rat [11] (setting [20]) it was 1200 mg/kg/day. Moreover, the LOAEL with mouse [4] is 7500 mg/kg/day; in the data set with mouse [5] it was > 1400 mg/kg/day; in the data set on mouse [6] (setting [16]) it was > 2100 mg/kg/day; with mouse [6] (setting [17]), > 2100 mg/kg/day; in the data set with rat [7] (setting [19]), > 2000 mg/kg/day; in the data set on mouse [8], > 1370 mg/kg/day. Further, the LOAEL in the data set on dog is 125 mg/kg/day; with rat [9], > 2500 mg/kg/day; with rat [10] it was > 2500 mg/kg/day; with rat [11] (setting [16]), 1200 mg/kg/day; in the data set on rat [11] (setting [20]) it was > 1500 mg/kg/day. Moreover, the NEL with mouse [4] was 1880 mg/kg/day; in the data set on mouse [5], 650 mg/kg/day; in the data set on mouse [6] (setting [16]), < 1320 mg/kg/day; in the data set with mouse [6] (setting [17]) it was 1320 mg/kg/day; in the data set with rat [7] (setting [18]), < 1000 mg/kg/day; in the data set on mouse [8] it was 663 mg/kg/day. Further, the NEL in the data set with dog is 50 mg/kg/day; in the data set with rat [9] it was < 155 mg/kg/day; in the data set on rat [10], < 1250 mg/kg/day; in the data set with rat [11] (setting [16]) it was < 1200 mg/kg/day; in the data set on rat [11] (setting [20]) it was < 1200 mg/kg/day. The NOAEL with mouse [4] is 3750 mg/kg/day; with mouse [5], ≥ 1400 mg/kg/day; in the data set on mouse [6] (setting [16]), ≥ 2100 mg/kg/day; in the data set on mouse [6] (setting [17]), ≥ 2100 mg/kg/day; in the data set with rat [7] (setting [19]) it was ≥ 2000 mg/kg/day; in the data set on mouse [8], ≥ 1370 mg/kg/day. In addition, the no observed adverse effect level (NOAEL) with dog is 50 mg/kg/day; in the data set with rat [9], ≥ 2500 mg/kg/day; in the data set on rat [10], ≥ 2500 mg/kg/day; in the data set with rat [11] (setting [16]) it was < 1200 mg/kg/day; with rat [11] (setting [20]) it was ≥ 1500 mg/kg/day.
Take `Oc1cc(Cl)ccc1Oc1ccc(Cl)cc1Cl` [Triclosan]: the LEL was determined as 25 mg/kg/day in the data set with mouse [12]; 15 mg/kg/day in the data set with rat [13]; 6.48 mg/kg/day in the data set on mouse [14] (setting [21]); 15 mg/kg/day in the data set with rabbit (setting [22]); 150 mg/kg/day with rat [15] (setting [23]); 15 mg/kg/day with rat [15] (setting [25]). For the same compound, the LEL with rat [15] (setting [27]) is 15 mg/kg/day. Also, the LOAEL is 25 mg/kg/day in the data set on mouse [12]; 15 mg/kg/day with rat [13]; 136 mg/kg/day in the data set with mouse [14] (systemic / clinical chemistry / alkaline phosphatase (alp/alk) / alkaline phosphatase (alp/alk) + systemic / clinical chemistry / alanine …); 150 mg/kg/day with rabbit (systemic / in life observation / body weight / body weight + systemic / in life observation / food consumption / food consumption); > 150 mg/kg/day with rat [15] (setting [23]); 150 mg/kg/day with rat [15] (setting [24]). Further, the LOAEL with rat [15] (setting [26]) worked out at 150 mg/kg/day. The NEL was < 25 mg/kg/day with mouse [12]; < 15 mg/kg/day with rat [13]; < 6.48 mg/kg/day in the data set on mouse [14] (setting [21]); < 15 mg/kg/day in the data set with rabbit (setting [22]); 50 mg/kg/day in the data set with rat [15] (setting [23]); < 15 mg/kg/day with rat [15] (setting [25]). The NEL in the data set with rat [15] (setting [27]) is < 15 mg/kg/day. Further, the NOAEL in the data set with mouse [12] was < 25 mg/kg/day; in the data set on rat [13] it was < 15 mg/kg/day; in the data set with mouse [14] (systemic / pathology microscopic / liver / infiltration cellular + systemic / clinical chemistry / alkaline phosphatase (alp/alk) / alkaline…), 6.48 mg/kg/day; in the data set on rabbit (systemic / in life observation / body weight / body weight + systemic / in life observation / food consumption / food consumption + …), 50 mg/kg/day; in the data set on rat [15] (setting [23]) it was ≥ 150 mg/kg/day; in the data set on rat [15] (setting [24]), 50 mg/kg/day. Further, the no-observed-adverse-effect level (NOAEL) in the data set with rat [15] (setting [26]) came to 50 mg/kg/day.
